Reference: ChEMBL document CHEMBL1833931, “Simple synthetic toll-like receptor 2 ligands” (Bioorg Med Chem Lett, 2011)
Activity calls are given as the source filed them. No cut-off for these calls is given here.

Biological target: Toll-like receptor 2 (Homo sapiens) (UniProt O60603)
Experiment: Agonist activity at TLR2 expressed in HEK293 cells co-expressing pNF-kappaB-Luc Cis assessed as NF-kappaB activation at 100 nM by luciferase reporter gene assay
Format: functional, cell-based

Toll-like receptor 2 (Homo sapiens), sequence (O60603 whole entry): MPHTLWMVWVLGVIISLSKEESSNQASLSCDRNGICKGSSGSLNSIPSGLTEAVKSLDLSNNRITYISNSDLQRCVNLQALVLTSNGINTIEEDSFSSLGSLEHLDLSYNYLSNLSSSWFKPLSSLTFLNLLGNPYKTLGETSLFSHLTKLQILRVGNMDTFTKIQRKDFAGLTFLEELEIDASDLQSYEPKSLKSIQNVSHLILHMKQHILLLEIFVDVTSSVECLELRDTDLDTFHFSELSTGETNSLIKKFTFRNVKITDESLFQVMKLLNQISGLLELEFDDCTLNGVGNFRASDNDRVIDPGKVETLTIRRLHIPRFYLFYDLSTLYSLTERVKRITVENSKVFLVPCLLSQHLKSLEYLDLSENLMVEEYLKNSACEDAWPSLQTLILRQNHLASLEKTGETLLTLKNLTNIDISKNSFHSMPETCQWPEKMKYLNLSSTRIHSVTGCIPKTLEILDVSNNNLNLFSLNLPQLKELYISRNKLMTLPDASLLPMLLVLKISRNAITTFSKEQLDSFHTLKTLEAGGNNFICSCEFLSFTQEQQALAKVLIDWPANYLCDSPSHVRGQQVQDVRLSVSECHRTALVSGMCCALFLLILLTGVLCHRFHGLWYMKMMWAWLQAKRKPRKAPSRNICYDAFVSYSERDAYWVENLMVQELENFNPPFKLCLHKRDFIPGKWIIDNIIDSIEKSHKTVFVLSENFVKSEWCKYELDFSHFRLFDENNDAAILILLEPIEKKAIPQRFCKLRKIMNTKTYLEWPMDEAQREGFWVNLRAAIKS

Row | Activity | Structure (SMILES)
1 | Active | CCCCCCCCCCCCCCCC(=O)NC(CCCCCCCCCCCCCC)C(=O)O (configuration not stated)
2 | Active | CCCCCCCCCCCCCCCC(=O)NC(CO)CCCCCCCCCCCCCC (configuration not stated)
